Laboratory results as given in patent publication US20020168365A1, “Method for modulating granzyme B uptake and for identifying modulators thereof” (priority 2000, published 2002).

Tests used:
[1] = system: Jurkat cells; test: GrB binding assay (flow cytometry, labeled grB at 4° C.); parameters: species or system human; conditions: for effect on grB binding: monosaccharide with labeled grB, 4° C. (FIG. 3A)
Protocol: Cells (1-2×10^5) were washed twice and resuspended in buffer before the addition of grB-biotin or -OG in a final volume of 20 μl for a 30-60 min incubation and washed again twice. In the case of grB-biotin, cells were then incubated with streptavidin-cychrome for 20 min and washed twice. Unless otherwise indicated, ˜25 ng grB-biotin or -OG was used to label cells. All steps of the assay were carried out at 4° C. to prevent intracellular uptake of grB. PBS/0.1% BSA buffer was used throughout the procedure. In some cases, results are presented as the relative MFI, which represents the MFI of the grB-labeled population minus the MFI of the unlabeled population.
(§1) GrB was treated for 1 hr at 37° C. in a phosphate-free (saline) or a high-phosphate (64.5 mM Na2HPO4.7H2O, 21 mM KH2PO4) buffer with calf intestinal alkaline phosphatase (1-10 U), 20 nM of the 37 kDa catalytic subunit of recombinant protein phosphatase-1 (Bagu et al, 1997), or with vehicle control. Cells were then incubated with the treated grB at 4° C. for 30-60 min. For the TUNEL or annexin V assays, cells were then washed twice before incubation at 37° C. with AD.
(§2) M6P and various other monosaccharides at different concentrations were added to cells for 15 min at 4° C. before the addition of labeled grB, or at room temperature before the addition of grB and AD.
(§3) GrB was incubated with sCI-MPR at various concentrations in PBS/0.1% BSA for 30 min at 4° C. Subsequently, cells were incubated with grB/sCI-MPR for 30-60 min at 4° C. and washed twice, before analysis of binding, or before the addition of AD for TUNEL and annexin V analysis.

[2] = system: Jurkat cells; test: TUNEL and annexin V apoptosis assays with grB and AD; format: cell-based, human; conditions: for percentage of TUNEL positive cells after incubation with grB and AD / percentage of annexin V positive cells after incubation with grB and AD: with 25 mM monosaccharide; for TUNEL positive cells: 3 hr with pretreated grB and AD
Protocol: as §1, §2, §3
For the in vitro killing assays, 10 pfu per cell of replication-deficient adenovirus (AD) were added subsequent to grB addition. Analysis of DNA fragmentation by TUNEL analysis has been described previously (Heibein et al., 1999). TUNEL materials (Roche Diagnostics) were used as per the manufacturer's instructions. Phosphatidylserine externalization was measured as previously described (Heibein et al., 1999) using annexin V-FITC (PharMingen). Percent specific TUNEL/annexin V positive cells was calculated as: [(% positive labeling cells with grB and AD-% positive labeling cells without grB and AD)/(100-% positive labeling cells without grB and AD)]×100.
Cells were resuspended at 10^6 cells/ml in 0.1% BSA/DMEM. Adenovirus (10 PFU/cell) and granzyme B (grB) were added directly to the cell suspension. Cells were incubated at 37° C. for 3 h. For staurosporine killing, cells were resuspended at 10^6 cells/ml in their normal growth medium and staurosporine (2.5 μM) was added directly to the cell suspension. Cells were incubated at 37° C. for 2, 4 and 8 h.
(§4) DNA fragmentation was monitored by flow cytometric analysis via the terminal deoxynucleotidyltransferase-mediated dUTP-biotin nick end labeling (TUNEL) method. Flow cytometric analysis was performed on a Becton Dickinson FACScanθ flow cytometer equipped with an argon-ion laser with 15 mW of excitation at 488 nm. Emission wavelengths were detected through the FL1 channel. Data were acquired on 10,000 cells per sample with light scatter signals at linear gain and fluorescence signals at logarithmic gain. Percent specific TUNEL positive cells was calculated as follows: [(% positive labeling cells with grB and AD−% positive labeling cells without grB and AD)/(AD−% positive labeling cells without grB and AD)]×100.
as §4, with “Phosphatidylserine externalization” for “DNA fragmentation”, “monitored using the ApoAlertθ annexin V apoptosis kit (Clontech) according to the protocol provided” for “monitored”, “by” for “by flow cytometric analysis via”, “manufacturer.” for “terminal deoxynucleotidyltransferase-mediated dUTP-biotin nick end labeling (TUNEL) method.”, “Annexin V” for “TUNEL”

[3] = system: MPR^− and CI-MPR^+ target cells; test: CTL killing assays (^3H-thymidine release and ^51Cr-release); format: cell-based, murine; conditions: Mus musculus; CTL effectors with targets in the presence of M6P (data not shown); read-out: half-maximal inhibition of target cell DNA fragmentation
Protocol: The ^51Cr- (lysis) and ^3H-thymidine (DNA fragmentation) release assays have been previously described (Darmon et al., 1996). Target cells (1×10^4 cells/well for the ^51Cr-release assay and 5×10^4 cells/well for the ^3H-thymidine-release assay) were incubated with CTL at various E:T ratios (effector:target) in the presence or absence of blocking murine- (1 μg/ml) or human- (200 ng/ml) anti-Fas mAb. Data from one experiment represent the mean of data from triplicate samples. Typically, spontaneous ^51Cr-release and DNA fragmentation was less than 10% and 5%, respectively. Percent specific lysis and DNA fragmentation was calculated as: [(sample cpm−spontaneous cpm)/(total cpm−spontaneous cpm)]×100.

[4] = system: CI-MPR^+ cells; test: GrB uptake assay (confocal microscopy, grB-OG at 37° C.); format: cell-based, murine L cells transfected with human CI-MPR; conditions: 20 mM M6P
Protocol: Cells on coverslips were incubated for 20 min at 37° C. with DMEM/0.1% BSA containing 25 ng grB-OG that was untreated, mock-treated, or alkaline phosphatase-treated as described above. For the M6P inhibition studies, cells were treated with 20 mM M6P in DMEM/0.1% BSA for 10 min at 37° C., before the addition of grB-OG, as above. Cells were then washed twice with PBS/0.1% BSA, fixed with 2% paraformaldehyde in PBS, and allowed to dry briefly before the coverslips were mounted and examined by confocal microscopy. Imaging was performed with a Zeiss Axiovertθ 100M LSM510 laser scan microscope and analyzed using LSM510 software.

[5] = system: MPRs in all cell lines; test: GrB-OG binding after M6P preincubation (Example 2, FIG. 8); conditions: 20 mM M6P, 37° C., 15 minutes prior to grB-OG
Protocol: Cells (1×10^5) were washed twice and resuspended in buffer before addition of grB-biotin or grB-OG in a final volume of 20 μl for a 30-60 min incubation and washed again twice. In the case of grB-biotin, cells were then incubated with streptavidin-cychrome for 20 min and washed twice. In order to measure cell surface binding, all steps of the binding assay were carried out at 4° C. to prevent intracellular uptake of grB. 0.1% BSA/PBS buffer was used throughout the procedure. All steps of the grB uptake assay were carried out at 37° C. Flow cytometric analysis was performed on a Becton Dickinson FACScanθ flow cytometer equipped with an argon-ion laser with 15 mW of excitation at 488 nm. Emission wavelengths were detected through the FL1 and FL3 channel for grB-OG and grB-biotin, respectively. Data were acquired on 10,000 cells per sample with light scatter signals at linear gain and fluorescence signals at logarithmic gain. Results are presented as the relative MFI, which represents the MFI of the grB-labeled population minus the MFI of the unlabeled population. M6P at 20 mM was added to cells for 15 min at 37° C. before the addition of labeled grB.

[6] = system: AD containing a β-galactosidase insert; test: Infection of AD containing a β-galactosidase insert; format: cell-based
[7] = target: cell surface MPR on Jurkat cells; test: cell-based or functional assay
[8] = preincubation of grB with soluble CI-MPR, Jurkat cells (data not shown)

O=C[C@H](O)[C@@H](O)[C@H](O)[C@H](O)COP(=O)(O)O [D-glucose 6-phosphate, reference compound]
concentrations at which inhibitory effect on grB binding was evident ([1]; labeled grB, 4° C.): above 25 mM | effect on grB binding [1]: slight inhibitory effect | percentage of TUNEL positive cells after incubation with grB and AD ([2]; 3 hr, Jurkat cells): 60% | percentage of annexin V positive cells after incubation with grB and AD ([2]; 3 hr, Jurkat cells): 41%

O=C[C@H](O)[C@@H](O)[C@H](O)[C@H](O)CO [D-glucose, reference compound]
effect on grB binding [1]: no effect | percentage of TUNEL positive cells after incubation with grB and AD ([2]; 3 hr, Jurkat cells): 66% | percentage of annexin V positive cells after incubation with grB and AD ([2]; 3 hr, Jurkat cells): 40%

O=C[C@@H](O)[C@@H](O)[C@H](O)[C@H](O)CO [D-mannose, reference compound]
effect on grB binding [1]: no effect | percentage of TUNEL positive cells after incubation with grB and AD ([2]; 3 hr, Jurkat cells): 52% | percentage of annexin V positive cells after incubation with grB and AD ([2]; 3 hr, Jurkat cells): 32%

O=C[C@@H](O)[C@@H](O)[C@H](O)[C@H](O)COP(=O)(O)O [M6P, mannose 6-phosphate]
IC50 [3]: > 25000 µM | uptake of grB (grB detected within the cells) [4]: essentially no grB could be detected within the cells | binding of grB to Jurkat cells ([1]; M6P at 20 mM, 4° C.): considerably reduced binding | IC50 ([1]; labeled grB, 4° C., flow cytometry, Jurkat cells (FIG. 3A), read-out: half-maximal inhibition of binding of grB): 1000 µM | binding of grB to the MPRs [5]: significantly reduced binding | concentration that markedly reduced in a dose-dependent manner the percentage of TUNEL or annexin V positive cells ([2]; Jurkat cells, grB and AD, 3 hr): ≥ 200 µM | effect on infection of AD containing a β-galactosidase insert [6]: No effect

dephosphorylated grB: grB treated with calf intestinal alkaline phosphatase in phosphate-free buffer
TUNEL positive cells ([2]; Jurkat cells): Less than 5%

dephosphorylated human granzyme B (treated with calf intestinal alkaline phosphatase in phosphate-free buffer) (from UniProt P10144 21-247) (enzyme)
TUNEL positive Jurkat cells after 3 hr with phosphatase-treated grB and AD [7]: < 5%

grB pretreated with alkaline phosphatase in phosphate-containing buffer: control grB treated with phosphatase in a phosphate-containing buffer to inhibit phosphatase activity
TUNEL positive cells ([2]; Jurkat cells): 50%

human granzyme B purified from the cytolytic granules of YT-Indy cells (from UniProt P10144 21-247) (enzyme)
TUNEL positive Jurkat cells after 3 hr with grB (pretreated with alkaline phosphatase in phosphate-containing buffer) and AD [7]: 50%

soluble CI-MPR: Human soluble cation-independent mannose 6-phosphate receptor (Valenzano et al., 1995)
concentration that markedly reduced in a dose-dependent manner the cell surface binding of grB [1, 8]: ≥ 100 µg/mL | concentration that markedly reduced in a dose-dependent manner grB/AD-mediated apoptosis [2, 8]: ≥ 100 µg/mL
